Experimental data reported in US7462630B2, “Diarylalkene derivatives and novel diarylalkane derivatives” (Ajinomoto Co., Inc., priority 2001, dated 2008).

Columns and labels:
[1] = target: T1, L-type calcium channel (Rattus norvegicus, UniProt P22002); experiment: Antagonistic activity on L-type calcium channel (relaxation response against KCl-induced contraction of isolated rat thoracic aorta); settings: read-out: Antagonistic action on L-type calcium channels pIC50 (converted)
T1 construct: relaxation response against the KCl-induced contraction of isolated rat thoracic aorta was employed; from tissue; host or cells: endothelium-denuded thoracic aorta rings of Wistar rat
T1 sequence (P22002 whole entry): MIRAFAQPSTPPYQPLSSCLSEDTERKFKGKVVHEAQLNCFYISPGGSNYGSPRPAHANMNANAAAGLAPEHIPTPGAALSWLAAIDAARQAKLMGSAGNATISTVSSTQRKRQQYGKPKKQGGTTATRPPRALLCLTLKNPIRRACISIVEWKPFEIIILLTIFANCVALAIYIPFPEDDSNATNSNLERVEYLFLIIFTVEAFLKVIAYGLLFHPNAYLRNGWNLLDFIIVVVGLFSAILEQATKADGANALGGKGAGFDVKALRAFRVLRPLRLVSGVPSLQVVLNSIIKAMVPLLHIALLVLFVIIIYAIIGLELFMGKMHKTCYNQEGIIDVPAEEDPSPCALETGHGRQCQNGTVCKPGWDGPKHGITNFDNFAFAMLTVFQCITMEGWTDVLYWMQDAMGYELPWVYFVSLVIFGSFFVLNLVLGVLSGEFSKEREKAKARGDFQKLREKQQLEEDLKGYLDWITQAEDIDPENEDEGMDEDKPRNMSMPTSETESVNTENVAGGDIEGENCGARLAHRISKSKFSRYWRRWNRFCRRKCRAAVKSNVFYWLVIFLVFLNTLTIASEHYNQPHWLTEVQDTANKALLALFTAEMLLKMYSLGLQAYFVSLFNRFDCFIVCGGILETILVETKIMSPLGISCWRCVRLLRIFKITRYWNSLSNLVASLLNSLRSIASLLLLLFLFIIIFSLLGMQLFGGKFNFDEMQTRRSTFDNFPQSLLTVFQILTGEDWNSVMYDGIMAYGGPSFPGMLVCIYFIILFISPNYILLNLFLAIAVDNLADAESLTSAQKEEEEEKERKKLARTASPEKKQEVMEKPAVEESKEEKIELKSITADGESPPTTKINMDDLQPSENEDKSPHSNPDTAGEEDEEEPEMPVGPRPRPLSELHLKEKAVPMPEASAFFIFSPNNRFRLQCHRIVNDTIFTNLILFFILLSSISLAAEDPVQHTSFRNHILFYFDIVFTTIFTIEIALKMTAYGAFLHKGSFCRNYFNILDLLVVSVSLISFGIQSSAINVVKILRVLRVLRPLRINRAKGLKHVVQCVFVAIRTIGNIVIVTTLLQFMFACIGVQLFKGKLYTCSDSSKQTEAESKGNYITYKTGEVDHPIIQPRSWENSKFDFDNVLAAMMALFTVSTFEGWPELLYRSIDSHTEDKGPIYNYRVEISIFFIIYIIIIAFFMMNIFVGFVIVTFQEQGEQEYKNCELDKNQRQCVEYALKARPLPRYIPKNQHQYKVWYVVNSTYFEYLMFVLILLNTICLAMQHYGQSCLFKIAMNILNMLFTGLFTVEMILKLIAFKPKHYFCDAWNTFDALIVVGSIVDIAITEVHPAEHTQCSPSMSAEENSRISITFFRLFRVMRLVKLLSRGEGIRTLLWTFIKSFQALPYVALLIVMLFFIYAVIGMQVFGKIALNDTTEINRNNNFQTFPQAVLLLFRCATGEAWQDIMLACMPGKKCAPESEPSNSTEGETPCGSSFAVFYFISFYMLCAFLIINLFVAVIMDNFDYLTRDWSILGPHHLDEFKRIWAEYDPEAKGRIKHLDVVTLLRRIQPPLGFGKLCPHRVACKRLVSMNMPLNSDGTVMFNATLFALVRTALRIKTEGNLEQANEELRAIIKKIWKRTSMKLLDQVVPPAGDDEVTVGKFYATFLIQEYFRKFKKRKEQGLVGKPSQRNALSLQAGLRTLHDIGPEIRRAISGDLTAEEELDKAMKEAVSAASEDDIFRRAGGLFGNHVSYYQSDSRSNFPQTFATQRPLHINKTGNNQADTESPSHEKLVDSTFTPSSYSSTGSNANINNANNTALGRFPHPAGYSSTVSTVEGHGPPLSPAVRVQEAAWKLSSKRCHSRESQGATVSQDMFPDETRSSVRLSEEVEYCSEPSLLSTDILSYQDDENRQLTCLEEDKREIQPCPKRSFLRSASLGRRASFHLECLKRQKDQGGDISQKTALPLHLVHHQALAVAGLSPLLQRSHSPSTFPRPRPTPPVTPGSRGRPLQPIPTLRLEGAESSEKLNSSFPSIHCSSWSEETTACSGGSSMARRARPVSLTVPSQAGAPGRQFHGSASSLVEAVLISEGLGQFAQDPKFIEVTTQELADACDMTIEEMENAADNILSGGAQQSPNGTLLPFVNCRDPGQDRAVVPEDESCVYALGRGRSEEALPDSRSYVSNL
T1 sequence (P54287 whole entry partner): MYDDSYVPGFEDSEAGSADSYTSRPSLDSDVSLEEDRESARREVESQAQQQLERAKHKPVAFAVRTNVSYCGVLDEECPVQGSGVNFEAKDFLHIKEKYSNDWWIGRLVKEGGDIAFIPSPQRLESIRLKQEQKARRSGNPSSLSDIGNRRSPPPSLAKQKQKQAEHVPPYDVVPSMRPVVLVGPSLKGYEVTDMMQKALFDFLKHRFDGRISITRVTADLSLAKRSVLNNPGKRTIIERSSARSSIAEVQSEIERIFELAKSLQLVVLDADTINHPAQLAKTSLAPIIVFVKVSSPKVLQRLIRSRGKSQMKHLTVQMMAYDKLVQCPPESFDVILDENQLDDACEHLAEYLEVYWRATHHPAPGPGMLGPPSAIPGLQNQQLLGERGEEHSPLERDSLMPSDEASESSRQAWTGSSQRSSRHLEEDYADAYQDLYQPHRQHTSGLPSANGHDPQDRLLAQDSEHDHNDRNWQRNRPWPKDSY
T1 sequence (P54290 25-944 partner limits assumed): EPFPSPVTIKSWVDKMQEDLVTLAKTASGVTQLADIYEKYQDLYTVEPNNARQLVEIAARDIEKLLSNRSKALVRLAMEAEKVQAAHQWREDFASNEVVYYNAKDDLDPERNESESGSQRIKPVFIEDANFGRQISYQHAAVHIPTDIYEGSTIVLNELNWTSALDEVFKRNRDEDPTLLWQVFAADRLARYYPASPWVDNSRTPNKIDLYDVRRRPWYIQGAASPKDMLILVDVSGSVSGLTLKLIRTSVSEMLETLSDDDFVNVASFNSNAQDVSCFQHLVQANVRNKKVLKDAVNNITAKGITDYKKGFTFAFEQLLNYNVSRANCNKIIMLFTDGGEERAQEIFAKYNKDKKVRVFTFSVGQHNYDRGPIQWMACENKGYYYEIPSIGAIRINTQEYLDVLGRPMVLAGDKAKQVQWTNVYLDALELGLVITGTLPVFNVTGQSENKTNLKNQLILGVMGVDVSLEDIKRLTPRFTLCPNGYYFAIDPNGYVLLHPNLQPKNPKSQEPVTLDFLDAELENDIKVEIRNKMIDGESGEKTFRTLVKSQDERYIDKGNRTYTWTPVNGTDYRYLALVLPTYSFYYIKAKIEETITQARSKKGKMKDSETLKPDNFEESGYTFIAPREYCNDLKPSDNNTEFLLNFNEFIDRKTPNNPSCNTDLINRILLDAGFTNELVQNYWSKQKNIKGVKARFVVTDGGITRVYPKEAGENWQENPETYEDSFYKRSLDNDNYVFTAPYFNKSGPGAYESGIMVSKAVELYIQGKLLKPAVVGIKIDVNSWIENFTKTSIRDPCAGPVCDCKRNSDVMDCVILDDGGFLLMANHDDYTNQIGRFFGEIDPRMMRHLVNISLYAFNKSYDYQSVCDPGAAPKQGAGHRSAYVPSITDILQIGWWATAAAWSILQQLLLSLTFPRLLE
T1 sequence (P54290 945-1091 partner limits assumed): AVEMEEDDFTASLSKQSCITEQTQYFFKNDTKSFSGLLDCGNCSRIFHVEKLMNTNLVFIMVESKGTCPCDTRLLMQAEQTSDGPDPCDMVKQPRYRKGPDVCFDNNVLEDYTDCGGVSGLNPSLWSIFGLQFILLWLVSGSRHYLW
Method: The antagonistic activity of the new diarylalkene derivatives and diarylalkane derivatives of the present invention to inhibit L-type calcium channel was determined by the following method in which the relaxation response against the KCl-induced contraction of isolated rat thoracic aorta was employed.
The slips of thoracic aorta isolated from a Wistar rat were used. The aorta was cut to obtain ring-shaped samples having a width of about 3 mm. The endothelial cells of the samples were mechanically removed. The samples were suspended in a strain gage in Tyrode's solution (158.3 mM of NaCl, 4.0 mM of KCl, 1.05 mM of MgCl2, 0.42 mM of NaH2PO4, 10 mM of NaHCO3, 2 mM of CaCl2 and 5 mM of glucose) in which a gaseous mixture of O2 (95%) and CO2 (5%) was introduced. A static tension of 2 g was applied thereto. The tension of the blood vessel was amplified with a transducer and a tension amplifier (EF-601G; Nihon Koden Corporation) and recorded with a multi-pen recorder (Rikadenki Kogyo Co., Ltd.). The experiments were conducted at 37° C.
After the tension had been stabilized, the nutrient solution in the sample tank was replaced with High K^+ Tyrode's solution (112.3 mM of NaCl, 50 mM of KCl, 1.05 mM of MgCl2, 0.42 mM of NaH2PO4, 10 mM of NaHCO3, 2 mM of CaCl2 and 5 mM of glucose) to conduct the contraction reaction. Thirty minutes after, the solution in the sample tank was replaced with the normal Tyrode's solution. The solution in the sample tank was again replaced with the High K^+ Tyrode's solution and the contraction reaction was observed. After attaining the maximum contraction reaction, the test compound was cumulatively added at intervals of 90 minutes to attain concentrations of 10^−9, 10^−8, 10^−7 and 10^−6 M. The inhibitory rate of the test compound against the maximum contraction response was employed as the index of the antagonistic activity on L-type calcium channels.
The value of pIC50 indicates the antagonistic activity of the test compound, i. e. the negative logarithm of the concentration of the test compound necessitated for the 50% inhibition.

[2] = target: T2, N-type calcium channel (Homo sapiens, UniProt Q00975); experiment: Antagonistic activity on N-type calcium channel (fluorescence dye method, KCl-stimulated intracellular calcium change in IMR-32 cells with 1 μM Nifedipine); type: cell-based; settings: 10 μM test compound, 60 mM KCl stimulation, read-out: Antagonistic activity on N-type calcium channels at 10 μM inhibition rate (%)
T2 construct: host or cells: IMR-32 human neuroblastoma cells, differentiated with dibutyl cAMP and 5-bromodeoxyuridine
Method: Human neuroblastoma cells IMR-32 were obtained from ATCC (American Type Culture Collection). The medium used was a Phenol Red-free Eagle minimum essential medium containing earle's salts (GIBCO) supplemented with 2 mM of L-glutamine (GIBCO), 1 mM of sodium pyruvate (pH 6.5) (GIBCO), antibiotic/antimycotic mixture (GIBCO) and 10% fetal calf serum (Cell Culture Technologies). Three ml of 1×10^5 cells/ml IMR-32 cells were spread on the glass bottom of a dish (Iwaki Glsss Co., Ltd.) having a diameter of 35 mm which had been treated with poly-L-lysin (SIGMA) and collagen (COLLAGEN VITROGEN 100; Collagen Co.). After the culture for 1 day, 1 mM (final concentration) of dibutyl cAMP and 2.5 μM (final concentration) of 5-bromodeoxyuridine (SIGMA) were added. After the culture for additional 10 to 14 days, the cells were subjected to the activity determination.
The medium for IMR-32 cells thus prepared was replaced with 1 ml of Phenol Red-free Eale minimum essential medium (GIBCO) containing 2.5 μM fura-2/AM (Dojin Kagaku, Co.) and earle's salts supplement, and the incubation was conducted at 37° C. for 30 minutes. Then the medium was replaced with a recording medium (20 mM of HEPES-KOH, 115 mM of NaCl, 5.4 mM of KCl, 0.8 mM of MgCl2, 1.8 mM of CaCl2 and 13.8 mM of D-glucose). Antagonistic activity on N-type calcium channel was determined and analyzed using a fluorescence microscope (Nikon Corporation) and an image analysis device ARGUS 50 (Hamamatsu Photonics). In particular, a recording medium (20 mM of HEPES-KOH, 115 mM of NaCl, 5.4 mM of KCl, 0.8 mM of MgCl2, 1.8 mM of CaCl2 and 13.8 mM of D-glucose) containing 1 μM of Nifedipine was given to the cells by reflux by a Y-tube method for 2 minutes. Then a stimulating agent containing 60 mM of potassium chloride was rapidly given by the Y-tube method. The calcium concentration change in the cells in this step was shown as the N-type calcium channel activity. Then stimulating agents containing 60 mM of potassium chloride and 0.1, 1 or 10 μM of the test compound were successively and rapidly given to the cells by the Y-tube method to determine the change in the intracellular calcium concentration. The antagonistic activity on N-type calcium channel was calculated from the inhibition rate (%) at a concentration of 10 μM.

With CCOC(=O)N[C@@H](CO)CC(=O)N1CCC(=C2c3ccccc3C=Cc3ccccc32)CC1 [Example 73, (R)-ethyl3-[4-(5H-dibenzo[a,d][7]annulen-5-ylidene)-1-piperidinyl]-1-(hydroxymethyl)-3-oxopropylcarbamate] the IC50 [1] was 2000 nM and the inhibition at 10 µM [2] was 75%.

CC(C)(C)OC(=O)NCC(=O)N1CCC(=C2c3ccccc3CCc3ccccc32)CC1 [Example 16, t-butyl 2-[4(10,11-dihydro-5H-dibenzo[a,d][7]annulen-5-ylidene)-1-piperidinyl]-2-oxoethyl carbamate] gave an IC50 [1] of 1260 nM and an inhibition at 10 µM [2] of 75%.

For CC(C)(C)OC(=O)NCC(=O)N1CCC(=C2c3ccccc3CSc3ccccc32)CC1 [Example 24, t-butyl 2-(4-dibenzo[b,e]thiepin-11(6H)-ylidene-1-piperidinyl)-2-oxoethylcarbamate], the IC50 [1] was 1000 nM and the inhibition at 10 µM [2] was 78%.

CC(C)(C)OC(=O)N[C@@H](CO)CC(=O)N1CCC(=C2c3ccccc3C=Cc3ccccc32)CC1 [Example 68, (R)-t-butyl 3-[4-(5H-dibenzo[a,d][7]annulen-5-ylidene)-1-piperidinyl]-1-(hydroxymethyl)-3-oxopropylcarbamate] showed an IC50 [1] of 398 nM and an inhibition at 10 µM [2] of 82%.

CC(C)(C)OC(=O)NCCCNC(=O)C=C1c2ccccc2C=Cc2ccccc21 [Example 41, t-butyl 3-[(5H-dibenzo[a,d][7]annulen-5-ylidenacetyl)amino]-propylcarbamate] showed an IC50 [1] of 1260 nM and an inhibition at 10 µM [2] of 76%.

CC(C)(C)OC(=O)N[C@@H](CO)CC(=O)N1CCC(=C2c3ccccc3Sc3ccccc32)CC1 [Example 76, tert-butyl (1R)-1-(hydroxymethyl)-3-oxo-3-[4-(9H-thioxanthen-9-ylidene)-1-piperidinyl]propylcarbamate] was tested, and the IC50 [1] was 794 nM and the inhibition at 10 µM [2] was 85%.

CC(C)(C)NC(=O)CCC(=O)N1CCC(=C2c3ccccc3C=Cc3ccccc32)CC1 [Example 9, N-(t-butyl)-4-[4-(5H-dibenzo[a,d][7]annulen-5-ylidene)-1-piperidinyl]-4-oxobutanamide] gave an IC50 [1] of 501 nM and an inhibition at 10 µM [2] of 83%.

CC(C)(C)OC(=O)NCC(=O)N1CCC(=C2c3ccccc3C=Cc3ccccc32)CC1 [Example 1, t-butyl 2-[4-(5H-dibenzo[a,d][7]annulen-5-ylidene)-1-piperidinyl]-2-oxoethylcarbamate] gave an IC50 [1] of 1000 nM and an inhibition at 10 µM [2] of 67%.

CC(C)(C)C(=O)N[C@@H](CO)CCC(=O)N1CCC(=C2c3ccccc3C=Cc3ccccc32)CC1 [Example 72, (R)-N-[4-[4-(5H-dibenzo[a,d][7]annulen-5-ylidene)-1-piperidinyl]-1-(hydroxylmethyl)-4-oxobutyl]-2,2-dimethylpropanamide] showed an IC50 [1] of 794 nM and an inhibition at 10 µM [2] of 81%.

With CC(C)(C)C(=O)N[C@H](CO)CCC(=O)N1CCC(=C2c3ccccc3CCc3ccccc32)CC1 [Example 78] the IC50 [1] was 2510 nM and the inhibition at 10 µM [2] was 84%.
